Source: US12172960B2, “Organic compound salts” (priority 2022, dated 2024)
Values after ≈ are worked out from the molar mass of the structure shown. Values joined by “and” are separate entries in the source; they are usually repeats but may differ in a detail not shown here. Equal values may be shown once.

What was measured:
Type in all cases: physicochemical
[1] = Dynamic vapor sorption (DVS) analysis; details: for further increase between 60% RH and 90% RH / water gain up to 60% RH / total water absorption over the humidity range: first sorption cycle, hydrobromide; for further increase between 60% RH and 90% RH: 60% RH to 90% RH; for total water absorption over the humidity range: up to 90% RH
Text: Dynamic vapor sorption (DVS) data was collected for both 5-MeO DMT HBr Pattern A and Pattern B. The DSV data are shown in FIG. 10 (Pattern A) und FIG. 11 (Pattern B). DVS profiles are almost identical.

[2] = Flow properties (bulk density, tapped density); details: for Hausner Factor: Tapped density/Bulk density; for Carr's Index: calculated from tapped and bulk density
Method: The bulk density and the tapped density of an HBr salt sample as obtained according to the above method was determined applying standard methods. • Bulk density: 0.19 g/cm^3 • Tapped density: 0.25 g/cm^3 • From this, the Carr's Index characterizing flow properties can be calculated ([…]). The index is 24%.

[3] = Solubility and pH in water for injection (24 hours equilibration, 25° C.); details: for pH value of the suspension/solution after 24 hours: in water for injection, determined at 25° C.; for solubility at 24 h: water for injection, 24 hours of equilibration, 25° C.
Method: 5-MeO-DMT freebase and 5-MeO-DMT hydrobromide (30 mg) were weighed out into crystallisation tubes, water for injection (WFI; 150 μL, 5 vols) was charged and samples were left to equilibrate (25° C.) over 24 hours.
The free base led to a suspension. An additional 850 μl of water was added. The mixture was still a suspension. […] The pH value of the suspension after 24 hours was 9.93, determined at 25° C.
In the case of 5-MeO-DMT HBr, a solution was obtained. […] The pH value of the solution after 24 hours was 6.84, determined at 25° C.

[4] = Particle size distribution by laser light scattering; details: sample weight 800 mg; listed as HBr salt, hydrobromide
Method: The particle size distribution of a sample obtained as in the above example was determined using a laser light scattering method.

Structure (SMILES) | modification of form following equilibration at extremes of relative humidity [1] | further increase between 60% RH and 90% RH [1] [wt %] | water gain up to 60% RH [1] [%] | total water absorption over the humidity range [1] [wt %] | Bulk density [2] [g/mL] | Tapped density [2] [g/mL] | Hausner Factor [2] | Carr's Index [2] [%] | pH value of the suspension/solution after 24 hours [3] | solubility at 24 h ([3]; pH 6.84, thermodynamic from solid) [µg/mL] | Dv10 [4] | Dv90 [4] | solubility at 24 h ([3]; pH 9.93, thermodynamic from solid) [µg/mL]
Br.COc1ccc2[nH]cc(CCN(C)C)c2c1 [5-MeO-DMT HBr Pattern A, 5-methoxy-N,N-dimethyltryptamine hydrobromide] | Neither form showed any modification | 1.56 | 0.13 | 1.7 |  |  |  |  |  |  |  |  | 
Br.COc1ccc2[nH]cc(CCN(C)C)c2c1 [5-MeO-DMT HBr Pattern B, 5-methoxy-N,N-dimethyltryptamine hydrobromide] | Neither form showed any modification | 1.57 | 0.14 | 1.71 |  |  |  |  |  |  |  |  | 
Br.COc1ccc2[nH]cc(CCN(C)C)c2c1 [5-MeO-DMT HBr, 5-methoxy-N,N-dimethyltryptamine hydrobromide] |  |  |  |  | 0.19 | 0.25 | 1.31 | 24 | 6.84 | > 200000 | 57.8 μm and 60.8 μm and 65.1 μm | 613 μm and 630 μm and 643 μm | 
COc1ccc2[nH]cc(CCN(C)C)c2c1 [free base, 5-Methoxy-N,N-dimethyltryptamine, reference compound] |  |  |  |  | 0.32 | 0.54 | 1.68 | 41 | 9.93 |  |  |  | 3290 (≈ 15.1 mM)
